Results reported in patent US8158621B2, “Methods of treating or preventing autoimmune diseases with 2,4-pyrimidinediamine compounds” (Rigel Pharmaceuticals, Inc., priority 2002, dated 2012).
pIC50: −log10 of the molar value.

Columns and labels:
[1] = test system: Human Jurkat T-cells (clone N); assay: Jurkat T-cell activation (anti-TCR, CD69 upregulation); type: cell-based
Summary of the method: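 Readout is CD69 upregulation by flow cytometry (anti-CD69-APC, 20 min at 4 °C) after 20 h anti-TCR (C305, 500 ng/ml) stimulation at 37 °C.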

[2] = test system: cultured human mast cells (CHMC); assay: CHMC low cell density IgE activation: tryptase assay; type: cell-based
Summary of the method: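 Degranulation was triggered with anti-IgE for 30 minutes at 37° C in cultured human mast cells seeded at low density (1000-1500 cells/well, chosen by donor) after a 1 hr equilibration in MT buffer. Released tryptase in cleared supernatant was quantified with a tryptase substrate at room temperature for 30 minutes.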

[3] = test system: cultured human mast cells (CHMC); assay: CHMC low cell density IgE activation: LTC4 assay; type: cell-based; settings: anti-IgE activation, LTC4 release
Description: Pellet CHMC cells (980 rpm, 10 min) and resuspend in pre-warmed MT. Add 65 ul of cells to each 96-well plate. Depending on the degranulation activity for each particular CHMC donor, load 1000-1500 cells/well. Mix four times followed by a 1 hr incubation at 37° C. […] Stimulate cells by adding 25 ul of 6× anti-IgE solution to the appropriate plates. Add 25 ul MT to un-stimulated control wells. Mix twice following addition of the anti-IgE. Incubate at 37° C. for 30 minutes. […] Spin plates at 1000 rpm for 10 min to pellet cells. Transfer 25 ul of supernatant to a 96-well black bottom plate and add 100 ul of freshly diluted tryptase substrate solution to each well. Incubate plates at room temperature for 30 min.
Leukotriene C4 (LTC4) is also quantified using an ELISA kit on appropriately diluted supernatant samples (determined empirically for each donor cell population so that the sample measurement falls within the standard curve) following the supplier's instructions.

[4] = test system: cultured human mast cells (CHMC); assay: CHMC low cell density ionomycin activation: tryptase assay; type: cell-based
B-cell line BJAB = assay: BJAB (B-cell) toxicity, light scatter; type: cell-based; settings: read-out: Toxicity BJAB Light Scat.
Description: The B-cell line BJAB was cultured in log phase in RPMI1640+10% heat-inactivated fetal bovine serum, 1× L-glutamine, 1× penicillin, 1× […] and 1× beta-mercaptoethanol at 37° C., 5% CO2. First, BJABs were harvested, spun and resuspended in culture medium to a concentration of 7.7×10^5 cells/mL. 65 uL cells were mixed with 65 uL compound, in duplicate and in the presence of 0.1% DMSO in a V-bottomed 96-well tissue culture plate. Cells were incubated with compound at various dilutions at 37° C., 5% CO2. Toxicity was assessed by flow cytometric analysis of cellular light scatter.

Jurkat cells = assay: Jurkat (T-cell) toxicity, light scatter; type: cell-based, human; settings: read-out: Toxicity Jurkat Light Scat.
Description: Dilute Jurkat cells to 2×10^5 cells/ml in complete RPMI (10% heat-inactivated fetal bovine serum) media and incubate at 37° C., 5% CO2 for 18 hours. Add 65 ul cells at 7.7×10^5 cells/ml to a 96-well V-bottom plate (TC-treated, Costar) containing 65 ul 2× compound (final vehicle concentration is 0.5% DMSO, 1.5% MeOH). Mix, incubate plates for 18-24 hr at 37° C., 5% CO2. Toxicity was assessed by flow cytometric analysis of cellular light scatter

[5] = Sheep model of allergic asthma; type: in vivo
Description: In the sheep model of allergic asthma, sheep are administered aerosols of test article via an endotracheal tube, followed by an aerosol challenge with antigen extracted from the roundworm, Ascaris suum, to which the sheep are naturally allergic. Allergen challenge leads to direct bronchoconstriction (both EAR and LAR) and a persistent non-specific AHR. These three characteristics are similar to those seen in human allergic asthmatics. The activity of the test agent is determined by changes in the lung resistance (RL), which is calculated from measurements of transpulmonary pressure, flow, and respiratory volume. […] The LAR is a less pronounced increase in RL, which starts approximately 5-6 hours following allergen challenge and is resolved by 8 hours post-challenge. Twenty-four hours after the challenge, a dose response to carbachol is measured to determine the AHR, which is expressed as the dose of carbachol required to increase RL by 400% over baseline. (This measurement is referred to as the provocative concentration of carbachol that elicits a 400% increase in RL over baseline (PC400). The data are compared to historical control data for the same individual when administered a saline control aerosol and challenged with Ascaris suum.

Primary T-cells = assay: Primary T-cell cytokine production (αCD3/αCD28): IL-2; type: cell-based, human; settings: read-out: 1° T-Cell IL2 IC50
Description: 2E8-4E8 PBMC or proliferating T cells grown in rIL-2 from healthy human donors were suspended in PBS were spun down (1500 rpm, 8-10 minutes) and resuspended in 100 ml RPMI Complete media (1% Pen-Strep, 1% L-Glutamine, 10 mM HEPES). The cells were plated in T175 flasks (37° C., 5% CO2) and monocytes were allowed to adhere for 2-3 hours. After monocyte attachment, non-adherent cells were harvested, counted by hemocytometer, washed several times with PBS then resuspended in Yssels Complete Media (Modified IMDM Media with 1% Human AB Serum, 1% Pen-Strep, 1% L-Glutamine, 10 mM HEPES) at […]. 90 uL of the cell dilution were then added to compounds diluted to 2× in Yssel's media and incubated for 30 minutes at 37° C. (5% CO2). After this preincubation step the compound/cell mixture was transferred to stimulation plates, as described below.
Stimulation plates were prepared by coating 96 well plates with 5 μg/ml αCD3 (BD PharMingen, Catalog #555336)+10 μg/ml αCD28 (Beckman Coulter, Catalog #IM1376) in PBS (no Ca^2+/Mg^2+) at 37° C. (5% CO2) for at 3-5 hours. After incubation with the stimulation antibodies, the cocktail was removed and the plates washed 3 times with PBS prior to addition of the primary T cell/compound mixture.
The compound/cell mixture was transferred to the stimulation plates and incubated for 18 hr at 37° C. (5% CO2). After the cell stimulation, ˜150 μl supernatant were transferred from each well into 96-well filter plates (Coming PVDF Filter Plates) spun down (2000 rpm, 2-3 minutes) and either used immediately for ELISA or LUMINEX measurements or frozen down at −80° C. for future use.
IL-2 ELISAs were performed using the Quantikine Human IL-2 ELISA kit (R&D Systems, Catalog # D2050) as described by the manufacturer and absorption was measured on a spectrophotometer at 450 nm wavelength. Blank values were substracted and absorbances were converted to pg/mL based on the standard curve.
Luminex immunoassay multiplexing for TNF, IL-2, GMSCF, IL-4 and IFNg was performed essentially as described by the manufacturer (Upstate Biotechnology). Essentially 50 uL of sample was diluted into 50 uL assay diluent and 50 uL incubation buffer, then incubated with 100 uL of the diluted detection antibody for 1 hr at RT in the dark. The filter plate was washed 2× in Wash Buffer, then incubated with 100 uL of the diluted secondary reagent (SAV-RPE) for 30 min at RT in the dark. Finally the plates were washed 3 times and bead identification and RPE fluorescent measured by the Luminex instrument.
Varied concentrations of compound were compared to solvent only to determine the inhibition of T-cell activation IC50 of each compound.

[6] = test system: basophil cells (human peripheral blood); assay: Basophil ionomycin activation: histamine release assay; type: cell-based; settings: basophils, ionomycin activation, histamine release; read-out: Basophils Ionomycin Histamine IC50
Description: The basophil activation assay was carried out using whole human peripheral blood from donors allergic to dust mites with the majority of the red blood cells removed by dextran sedimentation. Human peripheral blood was mixed 1:1 with 3% dextran T500 and RBCs were allowed to settle for 20-25min. The upper fraction was diluted with 3 volumes of D-PBS and cells were spun down for 10 min at 1500 rpm, RT. Supernatant was aspirated and cells were washed in an equal volume MT-buffer. Finally, cells were resuspended in MT-buffer containing 0.5% DMSO in the original blood volume. 80 uL cells were mixed with 20 uL compound in the presence of 0.5% DMSO, in triplicate, in a V-bottom 96-well tissue culture plate. A dose range of 8 compound concentrations was tested resulting in a 10-point dose response curve including maximum (stimulated) and minimum (unstimulated) response. […] The cells were stimulated for 30 minutes at 37° C., 5% CO2. The plate was spun for 10 min at 1500 rpm at room temperature and 80 uL the supernatant was harvested for histamine content analysis using the histamine ELISA kit supplied by Immunotech. The ELISA was performed according to supplier's instructions.
Assays for ionomycin-induced basophil cell degranulation were carried out as described for the Basophil IgE or Dustmite Activation Assay (Section 7.5.5, supra), with the exception that following incubation with compound, cells were stimulated with 20 μl of 2 μM ionomycin.

[7] = test system: IgE-induced degranulation of tissue mast cells; assay: Mouse model of passive cutaneous anaphylaxis (PCA); type: in vivo; settings: oral route in a PEG-based formulation (data not shown)
Description: This model provides a direct measure of IgE-induced degranulation of tissue mast cells. In this model, IgE primed animals are exposed to an allergen challenge, and the change in permeability of dermal vasculature that results from histamine release from mast cells is measured by change in the amount of dye leakage into surrounding tissue. Inhibition of mediator release by compounds that modulate mast cell degranulation is easily measured by extracting the dye from the tissue.
In the PCA assay mice are passively sensitized by intradermal injection with anti-dinitrophenol (DNP) IgE antibodies (Day −1). At predetermined times animals are treated with the test agent (Day 0). The modulatory effect of the agent on cutaneous mast cell degranulation is measured following intravenous injection of DNP conjugated to human serum albumin (HSA-DNP), together with Evans blue dye. The resulting cross-linking of the IgE receptor and subsequent mast cell degranulation-induced increase in vascular permeability is determined by measuring the amount of dye extravasation into the tissue. Dye is extracted from the tissue by formamide, and the absorbance of this extract is read at 620 nm.

Syk kinase = target: T1, Syk kinase (Homo sapiens, UniProt P43405); assay: Syk kinase biochemical fluorescence polarization assay; settings: isolated Syk kinase, fluorescence polarization, 4 uM ATP
T1 construct: purchased Upstate, Lake Placid NY

[8] = test system: FcγRI-mediated degranulation; assay: FcγRI-mediated degranulation (anti-human IgG Fab activation); type: cell-based; settings: cells not primed with IgE, activated with rabbit anti-human IgG Fab fragment
[9] = Low Density CHMC, anti-IgE activation, tryptase release, read-out: CHMC anti-IgE Tryptase IC50
[10] = Low Density CHMC, ionomycin activation, tryptase release, read-out: CHMC Ionomycin Tryptase IC50
[11] = dose, pretreatment and vehicle per compound as in TABLE 5

SMILES: Oc1cccc(Nc2ncc(Br)c(Nc3cccc(O)c3)n2)c1 [Compound R925778]
- pIC50 [1]: 5.47
- pIC50 [2, 9]: 6.65
- pIC50 [3]: 6.74
- pIC50 [4, 10]: < 5.00
- pIC50 (B-cell line BJAB): < 5.00
- pIC50 (Jurkat cells): < 5.00

SMILES: Oc1cccc(Nc2nc(Nc3ccc4c(c3)OCCO4)ncc2Br)c1 [Compound R925797]
- pIC50 [1]: 5.82
- pIC50 [2, 9]: 6.07
- pIC50 [3]: 6.55
- pIC50 [4, 10]: < 5.00
- pIC50 (B-cell line BJAB): < 5.00
- pIC50 (Jurkat cells): < 5.00

SMILES: Cc1cnc(Nc2cccc(O)c2)nc1Nc1cccc(O)c1 [Compound R926248]
- pIC50 [1]: 5.81
- pIC50 [2, 9]: 6.05
- pIC50 [3]: 6.12
- pIC50 [4, 10]: < 5.00
- pIC50 (B-cell line BJAB): < 5.00
- pIC50 (Jurkat cells): < 5.00

SMILES: Oc1cccc(Nc2ccnc(Nc3cccc(O)c3)n2)c1 [Compound R926249]
- pIC50 [1]: 6.02
- pIC50 [2, 9]: 6.30
- pIC50 [3]: 6.60
- pIC50 [4, 10]: < 5.00
- pIC50 (B-cell line BJAB): < 5.00
- pIC50 (Jurkat cells): < 5.00

SMILES: CC(=O)Oc1cccc(Nc2ncc(F)c(Nc3cccc(OC(C)=O)c3)n2)c1 [Compound R926387]
- pIC50 [1]: 5.41
- pIC50 [2, 9]: 6.19
- pIC50 [3]: 6.15
- pIC50 [4, 10]: < 5.00
- pIC50 (B-cell line BJAB): < 5.00
- pIC50 (Jurkat cells): < 5.00

SMILES: CNC(=O)COc1cccc(Nc2ncc(F)c(Nc3ccc4c(c3)OCCO4)n2)c1 [Compound R926495]
- pIC50 [1]: 4.92
- EAR [5, 11]: greatly reduced
- LAR and AHR [5, 11]: blocked
- pIC50 (Primary T-cells): 6.19
- pIC50 [6]: < 5.00

SMILES: CNC(=O)COc1cccc(Nc2ncc(C(F)(F)F)c(Nc3cccc(O)c3)n2)c1 [Compound R926742]
- EAR ([5]; administered in an aqueous suspension): failed to inhibit
- LAR and AHR [5, 11]: blocked
- PCA response [7]: able to inhibit the PCA response
- pIC50 (Primary T-cells): 6.14
- pIC50 (Syk kinase): 7.12
- pIC50 [6]: < 5.00

SMILES: Cc1cc(Nc2ncc(F)c(Nc3ccc4c(c3)NC(=O)C(F)(F)O4)n2)cc(Cl)c1O [Compound R926971]
- pIC50 ([2]; low cell density, read-out: CHMC anti-IgE Tryptase): 7.47
- pIC50 ([4]; low cell density, read-out: CHMC Ionomycin Tryptase): < 5.00
- inhibition of FcγRI-mediated degranulation [8]: inhibit FcγRI-mediated degranulation
- pIC50 (Syk kinase): 8.10
